Source: patent US10464963B2, “Compounds from invasive Salvinias and methods of using the same” (STEPHEN F. AUSTIN STATE UNIVERSITY, priority 2013, dated 2019)
Read-outs that look alike come from different tables or passages of the source.

Columns and labels:
[1] = Cytotoxicity assay (WST-8), MRC-5; type: cell-based, human; settings: human
Description: (§1) PANC-1 and MRC-5 was cultured in complete growth medium according to the ATCC protocols. Cells were grown at 37° C. and 5% CO2 in humidified air.
(§2) Cytotoxicity of total extracts of S. molesta was tested against PANC-1, A549, PC-3, and MRC-5. Cytotoxicity of the fractions was determined using A549 cells, a human non-small lung cancer cell line. Fractions were tested at 25, 50, and 100 μg/mL. The isolated pure compounds were tested in each of the cultured human tumor and normal cell lines at various concentrations between 1 and 100 μM with three replications. Human tumor and normal cells were inoculated into 96 well microtiter plates in 90 μL at plating densities ranging from 5,000 to 40,000 cells/well (measured by Z2 Coulter Counter of Beckman) depending on the doubling time of individual cell lines. Cell growth and viability was measured by WST-8 (Water Soluble Tetrazolium) assays following a standard protocol (Cell Counting Kit-8, Dojindo Molecular, Maryland). The WST-8 assay measured the relative activity of mitochondrial reductase enzymes in viable cells. A control WST reading (T0) before treatment was measured, then cells were continuously exposed to isolates for 48 h. After WST added and incubated for 2 h, the amount of formazan was measured by using a microplate spectrophotometer (μQuant spectrophotometer, Bio-Tek Instruments, Inc., Vermont) at 450 nm. TC or TD represents the readings of the untreated control or with tested compounds. Percent cell-growth (G) and percent cell-growth inhibition (GI) was calculated as: G=(TD−T0/TC−T0)×100; GI=[1−(TD−T0/TC−T0)]×100 for which TD≥T0; and G=(TD−T0/T0)×100; GI=[1−(TD−T0/T0)]×100 for which TD≤T0. […] Cancer drug doxorubicin was used as the positive controls in the cell-based assays.

[2] = system: human exocrine pancreatic cancer (PANC-1); assay: Cytotoxicity assay (WST-8), PANC-1; type: cell-based
Description: as §1, §2

[3] = system: human non-small cell lung cancer (A549); assay: Cytotoxicity assay (WST-8), A549; type: cell-based
Description: as §1, §2

human leukemia (HL-60) = assay: Cytotoxicity assay (WST-8), HL-60; type: cell-based
[4] = system: human exocrine pancreatic cancer (BxPC-3); assay: Cytotoxicity assay (WST-8), BxPC-3; type: cell-based
[5] = system: human prostate cancer (PC-3); assay: Cytotoxicity assay (WST-8), PC-3; type: cell-based
Description: as §1, §2

[6] = system: normal human lung fibroblasts cells (MRC-5); assay: Cytotoxicity assay (WST-8), MRC-5; type: cell-based
Description: as §1, §2

[7] = Homo sapiens, PANC-1, 48 h, read-out: Cytotoxic activity (GI50) PANC-1
[8] = Homo sapiens, A549, 48 h, read-out: Cytotoxic activity (GI50) A549
[9] = Homo sapiens, A549, Table 1, read-out: Activity against human non-small cell lung tumor A549 (GI50) (converted)
[10] = Homo sapiens, HL-60, 48 h, read-out: Cytotoxic activity (GI50) HL-60
[11] = Homo sapiens, BXPC-3, 48 h, read-out: Cytotoxic activity (GI50) BxPC-3
[12] = Homo sapiens, 48 h, read-out: Cytotoxic activity (GI50) PC-3
[13] = Homo sapiens, A549, Table 7, WST-8, 48 h exposure, mean ± S.D., read-out: Cytotoxic activity (GI50) A549
[14] = Homo sapiens, PANC-1, Table 1, read-out: Activity against human exocrine pancreatic tumor PANC-1 (GI50)
[15] = Homo sapiens, HL-60, Table 1, read-out: Activity against human leukemia HL-60 (GI50) (converted)
[16] = Homo sapiens, BXPC-3, Table 1, read-out: Activity against human exocrine pancreatic tumor BxPC-3 (GI50) (converted)
[17] = Homo sapiens, Table 1, read-out: Activity against human prostate tumor PC-3 (GI50) (converted)
[18] = Homo sapiens, PANC-1, Table 7, WST-8, 48 h exposure, mean ± S.D., read-out: Cytotoxic activity (GI50) PANC-1
[19] = Homo sapiens, HL-60, Table 7, WST-8, 48 h exposure, mean ± S.D., read-out: Cytotoxic activity (GI50) HL-60
[20] = Homo sapiens, BXPC-3, Table 7, WST-8, 48 h exposure, mean ± S.D., read-out: Cytotoxic activity (GI50) BxPC-3
[21] = Homo sapiens, Table 7, WST-8, 48 h exposure, mean ± S.D., read-out: Cytotoxic activity (GI50) PC-3
[22] = Table 7, WST-8, 48 h exposure, mean ± S.D., read-out: Cytotoxic activity (GI50) PANC-1
[23] = Table 7, WST-8, 48 h exposure, mean ± S.D., read-out: Cytotoxic activity (GI50) A549
[24] = Table 7, WST-8, 48 h exposure, mean ± S.D., read-out: Cytotoxic activity (GI50) HL-60
[25] = Table 7, WST-8, 48 h exposure, mean ± S.D., read-out: Cytotoxic activity (GI50) BxPC-3
[26] = Table 7, WST-8, 48 h exposure, mean ± S.D., read-out: Cytotoxic activity (GI50) PC-3

Row | Compound | GI50 at 48 h [1] | GI50 [2, 7] | GI50 [3, 8] | GI50 [3, 9] | GI50 (human leukemia (HL-60); [10]) | GI50 [4, 11] | GI50 [5, 12] | GI50 [3, 13] | GI50 [2, 14] | GI50 (human leukemia (HL-60); [15]) | GI50 [4, 16] | GI50 [5, 17] | GI50 [2, 18] | GI50 (human leukemia (HL-60); [19]) | GI50 [4, 20] | GI50 [5, 21] | further results
1 | CC(C)c1cc2c(cc1O)[C@@]1(C)CCCC(C)(C)C1=CC2=O [Compound 9, 5,6-dehydrosugiol] | > 100 µM | > 100 µM | 84.5 ± 18.7 µM | 84.5 µM | 92.8 ± 9.98 µM | > 100 µM | > 100 µM | – | – | – | – | – | – | – | – | – | –
2 | COc1cc2c(cc1C(C)C)C(=O)C(O)=C1C(C)(C)CCC[C@@]12C [Compound 11, montbretyl 12-methyl ether] | – | – | – | 21.2 µM | – | – | – | 21.2 ± 6.21 µM | – | – | – | – | – | – | – | – | –
3 | CC(C)c1cc2c(c(O)c1O)[C@@]1(C)CCCC(C)(C)[C@@H]1CC2=O [Compound 12, 11-hydroxysugiol] | 40.2 ± 0.91 µM | 43.1 ± 8.32 µM | 35 ± 6.2 µM | 35 µM | 35.3 ± 0.63 µM | 45 ± 8.33 µM | 41 ± 7.9 µM | – | 43.1 µM | 35.3 µM | 45 µM | 41 µM | – | – | – | – | –
4 | CC(C)c1cc2c(cc1O)[C@@]1(C)CCCC(C)(C)[C@@H]1CC2=O [Compound 13, sugiol] | – | – | – | – | – | – | – | 79.8 ± 2.18 µM | – | – | – | – | 87.9 ± 11.2 µM | 68.6 ± 13.5 µM | 36.1 ± 1.5 µM | > 100 µM | GI50 ([6]; human, 48 h): > 100 µM
5 | CC(C)c1cc2c(cc1O)[C@@]1(C)CCCC(C)(C)[C@@H]1CC2 [Compound 14, ferruginol] | – | – | – | – | – | – | – | 30.7 ± 5.22 µM | – | – | – | – | 41.1 ± 14.1 µM | 27.3 ± 8.95 µM | 21.1 ± 0.51 µM | 56.5 ± 16.5 µM | GI50 ([6]; human, 48 h): 40 ± 7.74 µM
6 | CC(C)c1cc2c(cc1O)[C@@]1(C)CCCC(C)(C)C1CC2O (stereo partly drawn) [Compound 15, 7-hydroxyferruginol] | 70.5 ± 7.21 µM | 78.2 ± 13.5 µM | 75.1 ± 7.04 µM | 75.1 µM | 75.2 ± 1.02 µM | 74.7 ± 11.1 µM | 85.6 ± 5.3 µM | – | 78.2 µM | 75.2 µM | 74.7 µM | 85.6 µM | – | – | – | – | –
7 | CC(C)c1cc2c(cc1O)[C@@]1(C)CCCC(C)(C)C1C=C2 (stereo partly drawn) [Compound 16, 6,7-dehydroferruginol] | 59.2 ± 7.56 µM | 46.7 ± 11 µM | 53.8 ± 9.65 µM | 53.8 µM | 66.52 ± 0.04 µM | 37.5 ± 4.01 µM | 58.1 ± 3.28 µM | – | 46.7 µM | 66.5 µM | 37.5 µM | 58.1 µM | – | – | – | – | –
8 | CC(C)c1cc2ccc3c(c2cc1O)CCCC3(C)C [Compound 17, 12-hydroxy simonellite] | – | – | – | 42.2 µM | – | – | – | 42.2 ± 3.89 µM | 37.5 µM | 50 µM | 36.4 µM | 43.6 µM | 37.5 ± 5.72 µM | 50 ± 15.2 µM | 36.4 ± 8.08 µM | 43.6 ± 11.9 µM | GI50 ([6]; human, 48 h): 55.4 ± 4.94 µM
9 | CC(C)c1ccc2c3c(ccc2c1)C(C)(C)CCC3 [Compound 18, simonellite] | – | – | – | – | – | – | – | – | – | – | – | – | – | – | – | – | GI50 [6]: > 100 µM; GI50 [2, 22]: > 100 µM; GI50 [3, 23]: > 100 µM; GI50 (human leukemia (HL-60); [24]): > 100 µM; GI50 [4, 25]: > 100 µM; GI50 [5, 26]: > 100 µM
10 | CC(C)C1=Cc2ccc3c(c2C(=O)C1=O)C(=O)CCC3(C)C [Compound 19, 1-oxomiltirone] | – | – | – | – | – | – | – | – | – | – | – | – | – | – | – | – | GI50 [6]: 20.4 ± 3.36 µM; GI50 [2, 22]: 32.1 ± 2.75 µM; GI50 [3, 23]: 24.9 ± 5.94 µM; GI50 (human leukemia (HL-60); [24]): 23.3 ± 6.66 µM; GI50 [4, 25]: 20.5 ± 2 µM; GI50 [5, 26]: 19 ± 5.34 µM
11 | CC(C)C1=C(O)C(=O)C2=C(CC[C@H]3C(C)(C)CCC[C@]23C)C1=O [Compound 20, royleanone] | 45.7 ± 2.32 µM | – | – | – | – | – | – | 30.1 ± 3.64 µM | 52.6 µM | – | 51 µM | – | 52.6 ± 18.8 µM | 36.3 ± 7.14 µM | 51 ± 10.4 µM | 27.1 ± 11.8 µM | –
12 | CC(C)c1cc(C=O)c([C@@]2(C)CCCC(C)(C)[C@H]2C=O)cc1O [Compound 22, 12-hydroxy-6,7-secoabieta-8,11,13-triene-6,7-dial] | – | – | 93.8 ± 21.4 µM | 93.8 µM | – | – | – | – | – | – | – | – | – | – | – | – | –
